From US4740499A, “Method of enhancing the bioactivity of atrial peptides” (Monsanto Company, priority 1986, dated 1988)
Where a SMILES comes first, the peptide text is derived from it. Bridges are numbered along the chain shown (N, C = ends).

Key:
[1] = test system: rabbit kidney brush border membranes (RBBM); experiment: physchem; format: biochemical; settings: for Effect of inhibitor on atrial peptide bioactivity during incubation with renal brush border membranes: nanomolar (low) concentrations of inhibitor
Procedure: (§1) The kelatorphan was prepared according to the method described for compound 13 by Fournie-Saluski et al., J. Med. Chem. 28, 1158-1169 (1985). The following procedure was performed at 4° C. Rabbit kidneys were obtained fresh and were perfused with buffer A (containing 5 mM Tris, pH 7.5, 0.25 M sucrose, 3 mM MgCl2 and 1 mM EDTA) to remove the blood. (EDTA=ethylenediaminetetraacetic acid.) The kidneys were minced, homogenized in 5 volumes of ice-cold buffer A with a Brinkmann Polytron homogenizer and filtered through two layers of cheesecloth. The filtrate was centrifuged at 5,000×g for 20 min, the pellet was discarded and the supernatant was centrifuged at 15,000×g for 20 min. The supernatant was retained and then centrifuged at 100,000×g for 90 min. The pellet was resuspended in 50 mM Tris, pH 7.5, and the suspension was centrifuged at 100,000×g for 90 min. The washed pellet was resuspended in 50 mM Tris, pH 7.5, to give a final protein concentration of 4 mg/ml using the protein assay of Bradford, Anal. Biochem. 72, 248-254 (1976). The membrane preparation was assayed for aminopeptidase and alkaline phosphatase activities which are the marker enzymes for the kidney brush border. See Inui et al., Biochim. Biophys. Acta 647, 150-154 (1981). The final membrane preparation was enriched 8-fold in alkaline phosphatase activity, and 11-fold in aminopeptidase activity, compared to the homogenate. Renal brush border membranes (10-20 μg) were preincubated for 15 min at 25° C. in a solution containing the inhibitor and 50 mM Tris, pH 7.5. […] Incubations were for 60 min at 25° C. and were terminated by removing the membranes by filtration using Gelman GA-6 filters. The filtrates were immediately frozen on dry ice and were stable for 1 week when stored at -80° C. Samples containing the peptide degradation products were resolved by C18 reversed phase high pressure liquid chromatography (HPLC). The frozen samples were thawed immediately before injection onto a Vydac C18 column (4.6 mm I.D.×25 cm; 5 micron/300 Å) equilibrated with water containing 0.05% trifluoracetic acid (TFA). Peptide fragments and starting material were separated on a linear gradient of 0-35% acetonitrile also containing 0.05% TFA. Both the gradient and the flow rate (1 ml/min) were maintained by a Waters HPLC system consisting of two Model 510 pumps connected to an Automated Gradient Controller. Column effluent was monitored at 220 nm by a Waters Model 481 spectrophotometer, and the amount of atrial peptide material and peptide fragments were measured via a Hewlett-Packard Model […] integrator. […] Therefore, in those cases where the N-terminal serine was removed, the total amount of biologically active material remaining at the end of the incubation was taken as the % starting material remaining plus % des […] -AP-I or des […] -AP-III (as appropriate), as calculated from the peak areas of the individual peptides on HPLC.

physchem = format: biochemical, rabbit; settings: pH 7.5, Peak area as % Initial AP: AP
Procedure: as §1

[2] = Plasma AP-III levels (radioimmunoassay) in rats, second test: varied AP-III infusion rate, constant thiorphan dose; format: in vivo, rat; settings: male, Sprague-Dawley, rat, in vivo, iv
Procedure: (§2) Plasma levels of atriopeptin III (AP-III) were tested in rats in which the AP-III was infused intravenously both with and without contemporaneous administration of thiorphan.
(§3) Male Sprague-Dawley rats, 240-310 g, were used for all tests. The rats were housed in the test facilities for at least 6 days before they were used.
(§4) Cannulas were made of PE-10 (polyethylene) tubing inserted and glued into a piece of PE-50 tubing. Rats were anesthetized with pentobarbital (50 mg/kg i.p.) and had cannulas inserted into the left femoral vein and artery. Both were inserted four cm into the vessels and tied securely. They were then tunnelled under the skin and brought out between the rat's shoulder blades and then cut so that only 1-2 cm was externalized. Cannulas were glued in place using Superglue and filled with saline containing 100 units heparin/ml. Rats were allowed to wake up and then housed individually with food and water ad libitum.
(§5) Two days after surgery, the rats were weighed and put into restraining cages that allowed limited movement. […] Blood was collected from the femoral artery and replaced with saline containing 10 units heparin/ml. In most tests, 0.3 ml blood was taken, except that when basal AP-III levels were measured 0.4 ml blood was withdrawn. Blood was immediately centrifuged in a microcentrifuge for one minute and plasma was frozen in plastic tubes placed on dry ice. Samples were kept in a -80° C. freezer until they were analyzed.
(§6) Thiorphan was dissolved in a minimal amount of 0.1 N NaOH to produce the sodium salt. The solution was immediately neutralized using 0.5 N HCl and diluted to a final concentration with 0.9% saline.
In the second test, the level of thiorphan was kept constant at 3 mg/kg and the rate of AP-III infusion was varied. AP-III was infused into the femoral vein for a total of 60 minutes at a rate of 150,450 and 900 ng/kg/min; another group of rats received only an infusion of dextrose/saline to determine if thiorphan affected the basal levels of AP-III. Blood was taken at 15 and 30 minutes after the start of the AP-III infusion to check for a steady state AP-III plasma concentration. After the 30 min sample, thiorphan (3 mg/kg) was injected arterially and additional blood samples were taken 15 and 30 min later (45 and 60 minutes after the start of the AP-III infusion).
(§7) Plasma AP-III levels were analyzed by radioimmunoassay using a second antibody to separate free and bound AP-III. The label was ^125 I-AP-III that was purified by HPLC after iodination. Conditions were set so that 35-40% of the total counts were precipitated. The incubation medium contained sodium phosphate, pH 7.4, 0.25% bovine serum albumin (BSA), 0.5% sodium azide and 3% PEG-8000 (polyethylene glycol). The primary antibody was from a guinea pig immunized against AP-III. The incubations were done overnight at 6° C. The next day, 2 ml of 0.125% BSA was added to each tube and then they were centrifuged for 45 min at 3000 rpm. They were decanted and the radioactivity was counted in a Micromedic gamma counter. The standard curve contained 10 to 600 pg AP-III/tube. Only the linear portion of the curve was used for quantification. Plasma samples were diluted so that the AP-III concentrations were in the range of the standard curve.

[3] = Plasma AP-III levels (radioimmunoassay) in rats, first test: constant AP-III infusion, varied thiorphan dose; format: in vivo, rat; settings: male, Sprague-Dawley, rat, in vivo, iv
Procedure: as §2, §3, §4, §5, §6
After taking the second sample, thiorphan was given as a bolus injection into the femoral artery and the line was flushed with 0.2 ml saline. The doses of thiorphan were 1,3,10 and 30 mg/kg; one set of rats received only a saline bolus as a control. Blood was taken 10,20,30 and 60 minutes after the injection of thiorphan. AP-III was infused during the entire experiment for a total of 90 minutes.
as §7

[4] = (c) 40 μM AP-III, 20 μg RBBM, 100 nM inhibitor, 60 min, 25° C.
[5] = rabbit, kidney or brush border membranes

For C[C@H](NC(=O)[C@H](CC(=O)NO)Cc1ccccc1)C(=O)O [(S,S) kelatorphan], the “Peak area as % Initial AP: AP” value [1, 4] was 17.2%, the “Peak area as % Initial AP: AP + des Ser^1 -AP” value [1, 4] was 49.3% and the “Peak area as % Initial AP: des Ser^1 -AP” value [1, 4] was 32.1%. For the same compound, the “Effect of inhibitor on atrial peptide bioactivity during incubation with renal brush border membranes” value (shortened to “Effect of inhibitor”) [1] was “inhibit the loss of atrial peptide bioactivity”.

In the case of CC[C@H](C)[C@@H]1NC(=O)[C@H](CCCN=C(N)N)NC(=O)[C@H](CC(=O)O)NC(=O)[C@H]([C@@H](C)CC)NC(=O)[C@H](CCCN=C(N)N)NC(=O)CNC(=O)CNC(=O)[C@H](Cc2ccccc2)NC(=O)[C@@H](NC(=O)[C@H](CO)NC(=O)[C@@H](N)CO)CSSC[C@@H](C(=O)N[C@@H](CC(N)=O)C(=O)N[C@@H](CO)C(=O)N[C@@H](Cc2ccccc2)C(=O)N[C@@H](CCCN=C(N)N)C(=O)N[C@@H](Cc2ccc(O)cc2)C(=O)O)NC(=O)CNC(=O)[C@H](CC(C)C)NC(=O)CNC(=O)[C@H](CO)NC(=O)[C@H](CCC(N)=O)NC(=O)[C@H](C)NC(=O)CNC1=O [AP-III] (H-SSCFGGRIDRIGAQSGLGCNSFRY-OH; disulfide 3-19), the remaining at 1 h, 40 μM (physchem; buffer or solvent) is reported as 100%, the remaining at 1 h, 40 μM (physchem; [5]) is reported as 3.3% and the “Peak area as % Initial AP: AP” value ([1]; rabbit, kidney or brush border membranes, 1 h, 40 μM, pH 7.5) is reported as 2.1%. It also gave a level at 0.25 h ([2]; 150 ng/kg/min) of 0.9 ± 0.2 ng/mL, a level at 0.5 h ([2]; 150 ng/kg/min) of 1 ± 0.6 ng/mL and a level at 0.25 h ([2]; 450 ng/kg/min) of 4.2 ± 1 ng/mL. It also gave a level at 0.5 h ([2]; 450 ng/kg/min) of 4.5 ± 1.2 ng/mL, a level at 0.25 h ([2]; 900 ng/kg/min) of 11.2 ± 3.5 ng/mL and a level at 0.5 h ([2]; 900 ng/kg/min) of 13.6 ± 1.8 ng/mL. For the same compound, the “Plasma AP-III concentration, stable level during infusion” value ([3]; 833 ng/kg/min) was 9 to 11 ng/mL, the “Plasma AP-III levels, constant level in control rats” value ([3]; 833 ng/kg/min) was 11 to 12 ng/mL and the level at 20 min ([3]; 833 ng/kg/min) was 9.6 ± 1.6 ng/mL. The level at 0.5 h ([3]; 833 ng/kg/min) was 10.8 ± 1.1 ng/mL, the level at 40 min ([3]; 833 ng/kg/min) was 11.2 ± 1.3 ng/mL and the level at 50 min ([3]; 833 ng/kg/min) was 11.3 ± 1.1 ng/mL. For the same compound, the level at 1 h ([3]; 833 ng/kg/min) was 11.7 ± 0.7 ng/mL, the level at 1.5 h ([3]; 833 ng/kg/min) was 10.6 ± 1.4 ng/mL and the level at 20 min ([3]; 1 mg/kg) was 9.2 ± 2.4 ng/mL. It also gave a level at 0.5 h ([3]; 1 mg/kg) of 9.7 ± 1 ng/mL, a level at 20 min ([3]; 3 mg/kg) of 10.1 ± 1.6 ng/mL and a level at 0.5 h ([3]; 3 mg/kg) of 11 ± 1.1 ng/mL. It also gave a level at 20 min ([3]; 10 mg/kg) of 9.7 ± 2.4 ng/mL, a level at 0.5 h ([3]; 10 mg/kg) of 10.6 ± 2.9 ng/mL and a level at 20 min ([3]; 30 mg/kg) of 9.2 ± 1.1 ng/mL. The level at 0.5 h ([3]; 30 mg/kg) was 8.8 ± 1 ng/mL.

For C[C@H](NC(=O)[C@@H](CC(=O)NO)Cc1ccccc1)C(=O)O [(R,S) kelatorphan], the “Peak area as % Initial AP: AP” value [1, 4] was 16.5%, the “Peak area as % Initial AP: AP + des Ser^1 -AP” value [1, 4] was 31.4% and the “Peak area as % Initial AP: des Ser^1 -AP” value [1, 4] was 14.9%. For the same compound, the “Effect of inhibitor” value [1] was “inhibit the loss of atrial peptide bioactivity”.

In the case of CC[C@H](C)[C@@H]1NC(=O)[C@H](CCCN=C(N)N)NC(=O)[C@H](CC(=O)O)NC(=O)[C@H]([C@@H](C)CC)NC(=O)[C@H](CCCN=C(N)N)NC(=O)CNC(=O)CNC(=O)[C@H](Cc2ccccc2)NC(=O)[C@@H](NC(=O)[C@H](CO)NC(=O)[C@@H](N)CO)CSSC[C@@H](C(=O)N[C@@H](CC(N)=O)C(=O)N[C@@H](CO)C(=O)O)NC(=O)CNC(=O)[C@H](CC(C)C)NC(=O)CNC(=O)[C@H](CO)NC(=O)[C@H](CCC(N)=O)NC(=O)[C@H](C)NC(=O)CNC1=O [AP-I] (H-SSCFGGRIDRIGAQSGLGCNS-OH; disulfide 3-19), the remaining at 1 h, 40 μM (physchem; buffer or solvent) is reported as 100% and the “Degradation of atrial peptide by proteolytic activity of renal brush border membranes” value [1] is reported as “degraded”.

With CC[C@H](C)[C@@H]1NC(=O)[C@H](CCCNC(=N)N)NC(=O)[C@H](CC(=O)O)NC(=O)[C@H](CCSC)NC(=O)[C@H](CCCNC(=N)N)NC(=O)CNC(=O)CNC(=O)[C@H](Cc2ccccc2)NC(=O)[C@@H](NC(=O)[C@H](CO)NC(=O)[C@H](CO)NC(=O)[C@H](CCCNC(=N)N)NC(=O)[C@H](CCCNC(=N)N)NC(=O)[C@H](CC(C)C)NC(=O)[C@@H](N)CO)CSSC[C@@H](C(=O)N[C@@H](CC(N)=O)C(=O)N[C@@H](CO)C(=O)N[C@@H](Cc2ccccc2)C(=O)N[C@@H](CCCNC(=N)N)C(=O)N[C@@H](Cc2ccc(O)cc2)C(=O)O)NC(=O)CNC(=O)[C@H](CC(C)C)NC(=O)CNC(=O)[C@H](CO)NC(=O)[C@H](CCC(N)=O)NC(=O)[C@H](C)NC(=O)CNC1=O [SLRR(Met^8)AP-III] the remaining at 1 h, 40 μM (physchem; buffer or solvent) was 100%, the remaining at 1 h, 40 μM (physchem; [5]) was 0% and the “Degradation of atrial peptide by proteolytic activity of renal brush border membranes” value [1] was “degraded”.

In the case of C[C@H](NC(=O)[C@@H](CC(=O)NO)Cc1ccccc1)C(=O)O [kelatorphan, [(R)-3-(N-hydroxy)carboxamido-2-benzylpropanoyl]-L-alanine], the “Effect of inhibitor” value [1] is reported as “substantially prolonged or enhanced”.
